20 compounds from patent US10219516B2, “Molecules having pesticidal utility, and intermediates, compositions, and processes, related thereto” (priority 2015, dated 2019) can be followed below.

The test system of assay [1] is Beet Armyworm (Spodoptera exigua, LAPHEG). As to the kind of experiment: Bioassay on Beet Armyworm (BAW), 128-well diet tray assay. It is filed as in vivo. The method, boiled down:
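In a 128-well format, eight wells per compound received a surface dose of 50 μg/cm^2 on artificial diet. After drying, each well got one to five second instar larvae, held at 25° C. with 14:10 photoperiod. Mortality percentages after five to seven days were averaged.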

Assay [2] has as its system Cabbage Looper (Trichoplusia ni, TRIPNI). As to the kind of experiment: Bioassay on Cabbage Looper (CL), 128-well diet tray assay. It is filed as in vivo. To be noted: Trichoplusia ni. The method, boiled down:
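Mortality of second instar larvae exposed to diet coated with 50 μg/cm^2 compound (acetone-water 90:10 vehicle, dried); 25° C., 5–7 days.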

The mark [3] stands for this setting: Species BAW (Beet Armyworm), read-out: BAW (Biological Results, rating).
Setting [4] is: Species CL (Cabbage Looper), read-out: CL (Biological Results, rating).
The mark [5] stands for this setting: Beet Armyworm, 128-well diet tray assay, read-out: BAW rating.
Setting [6] is: Cabbage Looper, 128-well diet tray assay, read-out: CL rating.

Where two headings read alike, the source gives them in different places.

Consider `O=C(Nc1c(F)cccc1F)c1cc(NC(=O)C2C(c3cc(Cl)cc(Cl)c3)C2(Cl)Br)ccc1Cl` (stereo not drawn) [F168, 5-(trans)-2-Bromo-2-chloro-3-(3,5-dichlorophenyl)cyclopropane-1-carboxamido)-2-chloro-N-(2,6-difluorophenyl)benzamide], for which the pest or weed control at 50 µg/cm2 in assay [1] (setting [3]) and in assay [2] (setting [4]) was 50 to 100% each time.

As to `Cc1cc(NC(=O)OC(C)(C)C)ccc1NC(=O)c1cc(NC(=O)[C@H]2[C@H](c3cc(Cl)c(Cl)c(Cl)c3)C2(Cl)Cl)ccc1Cl` [F278, tert-Butyl (4-(2-chloro-5-((1R,3R)-2,2-dichloro-3-(3,4,5-trichlorophenyl)cyclopropane-1-carboxamido)benzamido)-3-methylphenyl)carbamate], the pest or weed control at 50 µg/cm2 in assay [1] (setting [3]) and in assay [2] (setting [4]) was 50 to 100% in each case.

With `O=C(Nc1cc(F)cc([N+](=O)[O-])c1)c1cc(NC(=O)[C@H]2[C@H](c3ccc(Cl)c(Cl)c3)C2(Cl)Cl)ccc1Cl` [F416, 2-Chloro-5-((1R,3R)-2,2-dichloro-3-(3,4-dichlorophenyl)cyclopropane-1-carboxamido)-N-(3-fluoro-5-nitrophenyl)benzamide], the pest or weed control at 50 µg/cm2 in assay [1] (setting [5]) and in assay [2] (setting [6]) was 50 to 100% each time.

Regarding `O=C(Nc1nc2cc(Cl)ccc2o1)c1cc(NC(=O)C2C(c3cc(Cl)cc(Cl)c3)C2(Cl)Cl)ccc1Cl` (stereo not drawn) [F448, 2-Chloro-N-(5-chlorobenzo[d]oxazol-2-yl)-5-(trans)-2,2-dichloro-3-(3,5-dichlorophenyl)cyclopropane-1-carboxamido)benzamide], the pest or weed control at 50 µg/cm2 in assay [1] (setting [5]) and in assay [2] (setting [6]) was 50 to 100% in each case.

With `O=C(Nc1nc2ccc(F)cc2[nH]1)c1cc(NC(=O)C2C(c3cc(Cl)cc(Cl)c3)C2(Cl)Cl)ccc1Cl` (stereo not drawn) [F451, 2-Chloro-5-(trans)-2,2-dichloro-3-(3,5-dichlorophenyl)cyclopropane-1-carboxamido)-N-(6-fluoro-1H-benzo[d]imidazol-2-yl)benzamide], the pest or weed control at 50 µg/cm2 in assay [1] (setting [5]) and in assay [2] (setting [6]) was 50 to 100% in each case.

`Cc1cc(NS(C)(=O)=O)ccc1NC(=O)c1cc(NC(=O)C2C(c3cc(Cl)cc(Cl)c3)C2(Cl)Cl)ccc1Cl` (stereo not drawn) [F487, 2-chloro-5-(trans)-2,2-dichloro-3-(3,5-dichlorophenyl)cyclopropane-1-carboxamido)-N-(2-methyl-4-(methylsulfonamido)phenyl)benzamide]: the pest or weed control at 50 µg/cm2 in assay [1] (setting [5]) and in assay [2] (setting [6]) was 50 to 100% in each case.

As for `CC(C)(C)OC(=O)N(C(=O)OC(C)(C)C)c1c(F)ccc(NC(=O)c2cc(NC(=O)[C@H]3[C@H](c4ccc(Cl)c(Cl)c4)C3(Cl)Cl)ccc2Cl)c1F` [F500, tert-Butyl-N-((tert-butoxy)carbonyl)-N-(3-(2-chloro-5-((1R,3R)-2,2-dichloro-3-(3,4-dichlorophenyl)cyclopropane-1-carboxamido)benzamido)-2,6-difluorophenyl)carbamate], the pest or weed control at 50 µg/cm2 in assay [1] (setting [5]) was in the range of 50 to 100%; in assay [2] (setting [6]) it was 0 to 50%.

For `CC(C)(C)OC(=O)N(C(=O)OC(C)(C)C)c1c(F)ccc(NC(=O)c2cc(NC(=O)[C@H]3[C@H](c4ccc(F)c(Cl)c4)C3(Cl)Cl)ccc2Cl)c1F` [F503, tert-Butyl-N-((tert-butoxy)carbonyl)-N-(3-(2-chloro-5-((1R,3R)-2,2-dichloro-3-(3-chloro-4-fluorophenyl)cyclopropane-1-carboxamido)benzamido)-2,6-difluorophenyl)carbamate], the pest or weed control at 50 µg/cm2 in assay [1] (setting [5]) and in assay [2] (setting [6]) was 50 to 100% in each case.

`CC(C)(C)OC(=O)N(C(=O)OC(C)(C)C)c1c(F)ccc(NC(=O)c2cc(NC(=O)C3C(c4ccc(Cl)c(Br)c4)C3(Cl)Cl)ccc2Cl)c1F` (stereo not shown) [F513, tert-Butyl-N-((tert-butoxy)carbonyl)-N-(3-(5-(3-(3-bromo-4-chlorophenyl)-2,2-dichlorocyclopropane-1-carboxamido)-2-chlorobenzamido)-2,6-difluorophenyl)carbamate]: the pest or weed control at 50 µg/cm2 in assay [1] (setting [5]) and in assay [2] (setting [6]) was 50 to 100% throughout.

With `CC(C)(C)OC(=O)N(C(=O)OC(C)(C)C)c1cc(NC(=O)c2cc(NC(=O)[C@H]3[C@H](c4cc(Cl)cc(Cl)c4)C3(Cl)Cl)ccc2Cl)c(F)cc1F` [F519, tert-Butyl-N-((tert-butoxy)carbonyl)-N-(5-(2-chloro-5-((1R,3R)-2,2-dichloro-3-(3,5-dichlorophenyl)cyclopropane-1-carboxamido)benzamido)-2,4-difluorophenyl)carbamate], the pest or weed control at 50 µg/cm2 in assay [1] (setting [5]) and in assay [2] (setting [6]) was 50 to 100% throughout.

Turning to `CC(C)(C)OC(=O)N(C(=O)OC(C)(C)C)c1cc(NC(=O)c2cc(NC(=O)[C@H]3[C@H](c4ccc(Cl)c(Cl)c4)C3(Cl)Cl)ccc2Cl)c(F)cc1F` [F520, tert-Butyl-N-((tert-butoxy)carbonyl)-N-(5-(2-chloro-5-((1R,3R)-2,2-dichloro-3-(3,4-dichlorophenyl)cyclopropane-1-carboxamido)benzamido)-2,4-difluorophenyl)carbamate], the pest or weed control at 50 µg/cm2 in assay [1] (setting [5]) and in assay [2] (setting [6]) was 50 to 100% each time.

Consider `Nc1c(F)ccc(NC(=O)c2cc(NC(=O)C3C(c4cc(Cl)c(Cl)c(Br)c4)C3(Cl)Cl)ccc2Cl)c1F` (stereo not drawn) [F621, N-(3-Amino-2,4-difluorophenyl)-5-(3-trans-(3-bromo-4,5-dichlorophenyl)-2,2-dichlorocyclopropane-1-carboxamido)-2-chlorobenzamide], for which the pest or weed control at 50 µg/cm2 in assay [1] (setting [5]) and in assay [2] (setting [6]) was 50 to 100% throughout.

On to `Nc1c(F)ccc(NC(=O)c2cc(NC(=O)C3C(c4cc(F)cc(Br)c4)C3(Cl)Cl)ccc2Cl)c1F` (stereo not drawn) [F622, N-(3-Amino-2,4-difluorophenyl)-5-(3-trans-(3-bromo-5-fluorophenyl)-2,2-dichlorocyclopropane-1-carboxamido)-2-chlorobenzamide], for which the pest or weed control at 50 µg/cm2 in assay [1] (setting [5]) and in assay [2] (setting [6]) was 50 to 100% in each case.

In the case of `Nc1c(F)ccc(NC(=O)c2cc(NC(=O)C3C(c4cc(F)cc(C(F)(F)F)c4)C3(Cl)Cl)ccc2Cl)c1F` (stereo not drawn) [F623, N-(3-Amino-2,4-difluorophenyl)-2-chloro-5-(2,2-dichloro-3-trans-(3-fluoro-5-(trifluoromethyl)phenyl)cyclopropane-1-carboxamido)benzamide], the pest or weed control at 50 µg/cm2 in assay [1] (setting [5]) and in assay [2] (setting [6]) was 50 to 100% each time.

For the compound `Nc1c(F)ccc(NC(=O)c2cc(NC(=O)C3C(c4ccc(F)c(C(F)(F)F)c4)C3(Cl)Cl)ccc2Cl)c1F` (stereo not drawn) [F624, N-(3-Amino-2,4-difluorophenyl)-2-chloro-5-(2,2-dichloro-3-trans-(4-fluoro-3-(trifluoromethyl)phenyl)cyclopropane-1-carboxamido)benzamide], the pest or weed control at 50 µg/cm2 in assay [1] (setting [5]) and in assay [2] (setting [6]) was 50 to 100% each time.

As for `Nc1c(F)ccc(NC(=O)c2cc(NC(=O)C3C(c4ccc(F)c(Br)c4)C3(Cl)Cl)ccc2Cl)c1F` (stereo not drawn) [F625, N-(3-Amino-2,4-difluorophenyl)-5-(3-trans-(3-bromo-4-fluorophenyl)-2,2-dichlorocyclopropane-1-carboxamido)-2-chlorobenzamide], the pest or weed control at 50 µg/cm2 in assay [1] (setting [5]) and in assay [2] (setting [6]) was 50 to 100% in each case.

As for `Nc1c(F)ccc(NC(=O)c2cc(NC(=O)C3C(c4c(F)c(F)c(F)c(F)c4F)C3(Cl)Cl)ccc2Cl)c1F` (stereo not drawn) [F626, N-(3-Amino-2,4-difluorophenyl)-2-chloro-5-(2,2-dichloro-3-trans-(perfluorophenyl)cyclopropane-1-carboxamido)benzamide], the pest or weed control at 50 µg/cm2 in assay [1] (setting [5]) and in assay [2] (setting [6]) was 50 to 100% each time.

On to `Nc1c(F)ccc(NC(=O)c2cc(NC(=O)C3C(c4cc(F)c(F)c(F)c4)C3(Cl)Cl)ccc2Cl)c1F` (stereo not drawn) [F627, N-(3-Amino-2,4-difluorophenyl)-2-chloro-5-(2,2-dichloro-3-trans-(3,4,5-trifluorophenyl)cyclopropane-1-carboxamido)benzamide], for which the pest or weed control at 50 µg/cm2 in assay [1] (setting [5]) and in assay [2] (setting [6]) was 50 to 100% throughout.

Turning to `O=C(Nc1ccc(F)cc1)c1cc(NC(=O)C2C(c3cc(Cl)cc(Cl)c3)C2(Cl)Cl)ccc1Cl` (stereo not drawn) [F629, 2-Chloro-5-(2,2-dichloro-3-cis-(3,5-dichlorophenyl)cyclopropane-1-carboxamido)-N-(4-fluorophenyl)benzamide], the pest or weed control at 50 µg/cm2 in assay [1] (setting [5]) and in assay [2] (setting [6]) was 50 to 100% throughout.

As for `O=C(Nc1ccc(F)cc1)c1cc(NC(=O)C2C(c3cc(Cl)cc(Cl)c3)C2(Cl)Br)ccc1Cl` (stereo not drawn) [PF33, 5-(trans)-2-Bromo-2-chloro-3-(3,5-dichlorophenyl)cyclopropane-1-carboxamido)-2-chloro-N-(4-fluorophenyl)benzamide], the pest or weed control at 50 µg/cm2 in assay [1] (setting [5]) and in assay [2] (setting [6]) was 50 to 100% throughout.
